Counter-ions that a name gives are not always drawn. Like-named read-outs stand apart in the source and are kept apart here.
How the values were obtained:
[1] = molecular target: T1, human NTCP (Homo sapiens, UniProt Q14973); test: Screening fluorescent competitive Myrcludex B-FITC binding assay (96-well, 10 µM drug)
T1 sequence (Q14973 1-349): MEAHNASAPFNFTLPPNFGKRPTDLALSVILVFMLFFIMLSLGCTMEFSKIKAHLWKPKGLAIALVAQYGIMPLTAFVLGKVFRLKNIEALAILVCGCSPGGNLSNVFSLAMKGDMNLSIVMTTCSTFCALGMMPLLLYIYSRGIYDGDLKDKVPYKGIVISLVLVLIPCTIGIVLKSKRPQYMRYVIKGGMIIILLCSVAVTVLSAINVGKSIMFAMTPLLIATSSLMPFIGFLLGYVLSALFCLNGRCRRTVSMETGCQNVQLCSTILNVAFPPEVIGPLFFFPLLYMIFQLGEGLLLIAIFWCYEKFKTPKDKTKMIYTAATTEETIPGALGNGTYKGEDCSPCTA

[2] = molecular target: T1, human NTCP; test: Screening taurocholate uptake assay (96-well, [14C]taurocholate, 10 µM drug)
[3] = Prestwick library screen, Myrcludex B-FITC binding, 10 µM drug
[4] = Prestwick library screen, taurocholate uptake, 10 µM drug
[5] = ranking score beside the functional and binding assay B-scores of the screen
[6] = Prestwick library screen, 10 µM drug, B-score of Myrcludex B-FITC binding
[7] = Prestwick library screen, 10 µM drug, B-score of taurocholate uptake
[8] = combined ranking from functional and binding assay B-scores
[9] = screen, 10 µM drug, Myrcludex B-FITC binding
[10] = combined ranking from functional and binding screening assays
[11] = screen, 10 µM drug, taurocholate uptake

Work on `CC[C@@]1(O)C(=O)OCc2c1cc1n(c2=O)Cc2cc3c(CN(C)C)c(O)ccc3nc2-1` [Topotecan] yielded a B-score binding assay [1, 3] of 0.007, a B-score functional assay [2, 4] of 0.858 and a Ranking score [2, 5] of 819.148.
Compound `C=CCC1(CC(C)C)C(=O)NC(=O)NC1=O` [Butalbital] has a B-score binding assay [1] of 2.017, a B-score functional assay [2] of -0.027 and a Ranking score [2] of 849.583.
`O=C(O)c1cc(=O)c2c(OCC(O)COc3cccc4oc(C(=O)O)cc(=O)c34)cccc2o1` [Cromolyn disodium salt] showed a B-score binding assay [1, 6] of 0.29, a B-score functional assay [2, 7] of 0.688 and a Ranking score [2, 8] of 903.754.
Work on `Fc1ccc(C(c2ccc(F)cc2)N2CCN(C/C=C/c3ccccc3)CC2)cc1` [Flunarizine dihydrochloride] yielded a B-score binding assay [1, 3] of 0.001, a B-score functional assay [2, 4] of 0.875 and a Ranking score [2, 5] of 816.419.
In the case of `Nc1nc(/C(=C/CC(=O)O)C(=O)N[C@@H]2C(=O)N3C(C(=O)O)=CCS[C@H]23)cs1` [Ceftibuten], the B-score binding assay [1, 6] is reported as 1.253, the B-score functional assay [2, 7] is reported as 0.671 and the Ranking score [2, 8] is reported as 1026.13.
Work on `CCCC(C)C1(CC)C(=O)NC(=O)NC1=O` (stereo not drawn) [Pentobarbital] yielded a B-score binding assay [1] of 1.244, a B-score functional assay [2] of -0.299 and a Ranking score [2] of 697.378.
With `CN1CCc2c(c3ccccc3n2Cc2ccccc2)C1.O=S(=O)(O)c1cccc2c(S(=O)(=O)O)cccc12` [Mebhydroline 1,5-naphtalenedisulfonate] the B-score binding assay [1, 6] was 1.889, the B-score functional assay [2, 7] was 0.022 and the Ranking score [2, 8] was 893.031.
For `C[N+]1(CCCCC[N+]2(C)CCCC2)CCCC1.O=C([O-])C(O)C(O)C(=O)O.O=C([O-])C(O)C(O)C(=O)O` [Pentolinium bitartrate], the B-score binding assay [1, 9] was -0.512, the Ranking score [2, 10] was 451.889 and the B-score functional assay [2, 11] was -0.089.
For `CC(=O)[C@H]1CC[C@H]2[C@@H]3C[C@H](C)C4=CC(=O)CC[C@]4(C)[C@H]3[C@@H](O)C[C@]12C` [Medrysone], the B-score binding assay [1, 9] was -0.142, the Ranking score [2, 10] was 406.005 and the B-score functional assay [2, 11] was -0.706.
`C[C@]12CC[C@H](O)C[C@H]1CC[C@@H]1[C@@H]2CC[C@]2(C)[C@@H](C3=CC(=O)OC3)CC[C@]12O` [Digitoxigenin] was tested, and the B-score binding assay [1, 9] was 1.274, the Ranking score [2, 10] was 348.633 and the B-score functional assay [2, 11] was -2.282.
`CCC(=O)O[C@]1(C(=O)SCF)[C@H](C)C[C@H]2[C@@H]3C[C@H](F)C4=CC(=O)C=C[C@]4(C)[C@@]3(F)[C@@H](O)C[C@@]21C` [Fluticasone propionate] gave a B-score binding assay [1, 3] of 0.947, a B-score functional assay [2, 4] of 0.021 and a Ranking score [2, 5] of 830.535.
Compound `CN1C(=O)CCS(=O)(=O)C1c1ccc(Cl)cc1` (stereo not drawn) [Chlormezanone] has a B-score binding assay [1, 6] of 1.516, a B-score functional assay [2, 7] of 0.286 and a Ranking score [2, 8] of 979.274.
Compound `CNCC[C@@H](Oc1cccc2ccccc12)c1cccs1.Cl` [(R)-Duloxetine hydrochloride] has a B-score binding assay [1] of -0.619, a B-score functional assay [2] of 1.079 and a Ranking score [2] of 610.37.
For `CNC(=C[N+](=O)[O-])NCCSCc1csc(CN(C)C)n1` [Nizatidine], the B-score binding assay [1, 6] was 1.375, the B-score functional assay [2, 7] was 0.271 and the Ranking score [2, 8] was 960.129.
With `COc1cccc2c1C(=O)c1c(O)c3c(c(O)c1C2=O)C[C@@](O)(C(=O)CO)C[C@@H]3O[C@H]1C[C@H](N)[C@H](O)[C@H](C)O1` [Doxorubicin hydrochloride] the B-score binding assay [1] was -0.177, the B-score functional assay [2] was 0.02 and the Ranking score [2] was 577.781.
Work on `CNC(C)(C)Cc1ccccc1.CNC(C)(C)Cc1ccccc1.O=S(=O)(O)O` [Mephentermine hemisulfate] yielded a B-score binding assay [1, 3] of 0.758, a B-score functional assay [2, 4] of -0.093 and a Ranking score [2, 5] of 728.877.
`Cn1c(=O)c2c(ncn2CC2OCCO2)n(C)c1=O` [Doxofylline] gave a B-score binding assay [1, 6] of 0.388, a B-score functional assay [2, 7] of 3.316 and a Ranking score [2, 8] of 1049.35.
With `CN1CCN(C2=Nc3ccccc3Oc3ccc(Cl)cc32)CC1` [Loxapine succinate] the B-score binding assay [1, 9] was 0.552, the Ranking score [2, 10] was 424.073 and the B-score functional assay [2, 11] was -1.397.
In the case of `CNC(=O)c1c(I)c(C(=O)NCC(=O)Nc2c(I)c(C(=O)O)c(I)c(C(=O)NCCO)c2I)c(I)c(N(C)C(C)=O)c1I` [Ioxaglic acid], the B-score binding assay [1, 3] is reported as 2.105, the B-score functional assay [2, 4] is reported as -0.19 and the Ranking score [2, 5] is reported as 769.829.
Compound `CC1(C)O[C@@H]2C[C@H]3[C@@H]4C[C@H](F)C5=CC(=O)C=C[C@]5(C)[C@@]4(F)[C@@H](O)C[C@]3(C)[C@]2(C(=O)CO)O1` [Fluocinolone acetonide] has a B-score binding assay [1, 3] of -0.033, a B-score functional assay [2, 4] of 0.621 and a Ranking score [2, 5] of 752.533.
Work on `CC(C)COCC(CN(Cc1ccccc1)c1ccccc1)N1CCCC1` (stereo not drawn) [Bepridil hydrochloride] yielded a B-score binding assay [1, 9] of -1.626, a Ranking score [2, 10] of 392.989 and a B-score functional assay [2, 11] of 1.07.
Work on `NCCCNCCSP(=O)(O)O` [Amifostine] yielded a B-score binding assay [1, 3] of 0.481, a B-score functional assay [2, 4] of 0.006 and a Ranking score [2, 5] of 764.099.
Compound `Cc1ccc(C(=O)c2ccc(CC(=O)O)n2C)cc1` [Tolmetin sodium salt dihydrate] has a B-score binding assay [1, 6] of 2.458, a B-score functional assay [2, 7] of 0.203 and a Ranking score [2, 8] of 996.915.
`COc1ccc2c(c1)C(=O)N(CCc1ccc(S(=O)(=O)NC(=O)NC3CCCCC3)cc1)C(=O)C2(C)C` [Gliquidone] showed a B-score binding assay [1, 9] of 1.024, a Ranking score [2, 10] of 336.107 and a B-score functional assay [2, 11] of -2.316.
`O=C(c1ccccc1)c1ccc2n1CCC2C(=O)O` (stereo not drawn) [Ketorolac tromethamine] gave a B-score binding assay [1, 9] of -0.614, a Ranking score [2, 10] of 396.636 and a B-score functional assay [2, 11] of -0.269.
For `CCN1CCCC(OC(=O)C(c2ccccc2)c2ccccc2)C1` (stereo not drawn) [Piperidolate hydrochloride], the B-score binding assay [1, 9] was -1.968, the Ranking score [2, 10] was 357.281 and the B-score functional assay [2, 11] was 1.475.
In the case of `Cc1cc2cc3c(C)cc(=O)oc3c(C)c2o1` [Trioxsalen], the B-score binding assay [1, 6] is reported as 1.537, the B-score functional assay [2, 7] is reported as 0.56 and the Ranking score [2, 8] is reported as 1035.49.
`C[N+]12CCC(CC1)C(OC(=O)C(O)(c1ccccc1)c1ccccc1)C2` (stereo not drawn) [Clidinium bromide] showed a B-score binding assay [1, 6] of 0.853, a B-score functional assay [2, 7] of 0.121 and a Ranking score [2, 8] of 877.232.
With `C[C@H]1O[C@@H](O[C@H]2[C@@H](O)C[C@H](O[C@H]3[C@@H](O)C[C@H](O[C@H]4CC[C@@]5(C)[C@H](CC[C@@H]6[C@@H]5C[C@@H](O)[C@]5(C)[C@@H](C7=CC(=O)OC7)CC[C@]65O)C4)O[C@@H]3C)O[C@@H]2C)C[C@H](O)[C@@H]1O` [Digoxin] the B-score binding assay [1, 9] was 2.8, the Ranking score [2, 10] was 426.002 and the B-score functional assay [2, 11] was -1.822.
With `CCN1CCCC1CNC(=O)c1cc(S(=O)(=O)CC)c(N)cc1OC` (stereo not drawn) [Amisulpride] the B-score binding assay [1, 6] was 0.863, the B-score functional assay [2, 7] was 0.107 and the Ranking score [2, 8] was 873.097.
Compound `COc1cc(N)c(Cl)cc1C(=O)NC1CCN(Cc2ccccc2)CC1` [Clebopride maleate] has a B-score binding assay [1, 3] of -0.092, a B-score functional assay [2, 4] of 0.453 and a Ranking score [2, 5] of 697.485.
In the case of `NC[C@H]1O[C@H](O[C@H]2[C@H](O)[C@@H](O[C@H]3O[C@H](CO)[C@@H](O)[C@H](N)[C@H]3O)[C@H](N)C[C@@H]2N)[C@H](O)[C@@H](O)[C@@H]1O` [Kanamycin A sulfate], the B-score binding assay [1, 3] is reported as 1.616, the B-score functional assay [2, 4] is reported as -0.456 and the Ranking score [2, 5] is reported as 673.457.
For `CC(C(=O)O)c1ccc2c(c1)Cc1cccnc1O2` (stereo not drawn) [Pranoprofen], the B-score binding assay [1, 3] was 1.204, the B-score functional assay [2, 4] was -0.016 and the Ranking score [2, 5] was 817.912.
Work on `CCC[C@H](N[C@@H](C)C(=O)N1[C@H](C(=O)O)C[C@@H]2CCCC[C@@H]21)C(=O)OCC` [Perindopril] yielded a B-score binding assay [1, 9] of 1.021, a Ranking score [2, 10] of 319.862 and a B-score functional assay [2, 11] of -2.428.
For `CCn1cc(C(=O)O)c(=O)c2cnc(N3CCCC3)nc21` [Piromidic acid], the B-score binding assay [1, 6] was 0.041, the B-score functional assay [2, 7] was 1.197 and the Ranking score [2, 8] was 874.684.
`CC[C@H]1OC(=O)[C@H](C)[C@@H](O[C@H]2C[C@@](C)(OC)[C@@H](O)[C@H](C)O2)[C@H](C)[C@@H](O[C@@H]2O[C@H](C)C[C@H](N(C)C)[C@H]2O)[C@](C)(O)C[C@@H](C)[C@@H]2N[C@@H](COCCOC)O[C@H]([C@H]2C)[C@]1(C)O` [Dirithromycin] showed a B-score binding assay [1, 6] of 0.123, a B-score functional assay [2, 7] of 1.532 and a Ranking score [2, 8] of 934.441.
For `CC(=O)c1ccc(S(=O)(=O)NC(=O)NC2CCCCC2)cc1` [Acetohexamide], the B-score binding assay [1, 6] was 1.192, the B-score functional assay [2, 7] was 0.057 and the Ranking score [2, 8] was 875.07.
In the case of `C#C[C@]1(O)CC[C@H]2[C@@H]3CCC4=C(CCC(=O)C4)[C@H]3CC[C@@]21C` [Norethynodrel], the B-score binding assay [1, 3] is reported as 0.121, the B-score functional assay [2, 4] is reported as 0.092 and the Ranking score [2, 5] is reported as 749.492.
With `S=c1[nH]cnc2nc[nH]c12` [Mercaptopurine] the B-score binding assay [1, 9] was -0.534, the Ranking score [2, 10] was 451.727 and the B-score functional assay [2, 11] was -0.084.
With `CN(C/C=C/C#CC(C)(C)C)Cc1cccc2ccccc12` [Terbinafine] the B-score binding assay [1, 3] was -0.07, the B-score functional assay [2, 4] was 3.878 and the Ranking score [2, 5] was 842.5.
`CCN[C@H]1C[C@H](C)S(=O)(=O)c2sc(S(N)(=O)=O)cc21` [Dorzolamide hydrochloride] showed a B-score binding assay [1, 9] of -0.624, a Ranking score [2, 10] of 369.324 and a B-score functional assay [2, 11] of -0.44.

Reference: paper PMC5681660, “Reduced hepatitis B and D viral entry using clinically applied drugs as novel inhibitors of the bile acid transporter NTCP” (Scientific Reports, 2017)
